Laboratory results reported in patent US5677346A, “Treating urinary incontinence using (S)-desethyloxybutynin” (Sepracor, Inc., priority 1995, dated 1997).

Tests used:
[1] = biological target: Ca channel (T + L, verapamil site); experiment: Binding to calcium channel, verapamil site ([3H]D 888, rat cerebral cortex); settings: for percent inhibition of specific radioligand binding, Calcium (verapamil): Table 8, 10^-5 M
[2] = test system: guinea pig bladder smooth muscle strips; experiment: Potassium-induced contraction of isolated bladder strips (spasmolytic activity)
[3] = biological target: T1, human recombinant M2 muscarinic receptor (Homo sapiens, UniProt P08172); experiment: biochemical; type: binding; settings: for inhibition at 10 µM: read-out: percent inhibition of specific radioligand binding M2H 10^-5 M; for inhibition at 0.1 µM: read-out: percent inhibition of specific radioligand binding M2H 10^-7 M
T1 construct: made in house; host or cells: SF9 insect cells infected with baculovirus (membranes)
T1 sequence (P08172 1-466): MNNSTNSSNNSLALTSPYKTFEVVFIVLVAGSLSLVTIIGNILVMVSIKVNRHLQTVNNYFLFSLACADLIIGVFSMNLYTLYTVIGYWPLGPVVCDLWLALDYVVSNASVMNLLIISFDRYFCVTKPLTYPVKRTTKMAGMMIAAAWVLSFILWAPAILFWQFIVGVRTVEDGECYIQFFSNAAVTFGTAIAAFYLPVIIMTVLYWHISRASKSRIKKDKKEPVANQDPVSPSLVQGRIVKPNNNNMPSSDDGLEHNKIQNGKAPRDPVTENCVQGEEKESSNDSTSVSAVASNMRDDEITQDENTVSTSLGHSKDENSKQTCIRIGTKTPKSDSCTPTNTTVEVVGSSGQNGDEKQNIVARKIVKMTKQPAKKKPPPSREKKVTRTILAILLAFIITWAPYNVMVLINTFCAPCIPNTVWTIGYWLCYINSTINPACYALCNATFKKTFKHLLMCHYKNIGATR

[4] = biological target: T2, bladder muscarinic receptors (guinea pig bladder smooth muscle strips) (Cavia porcellus, UniProt H0W1Z3); experiment: Carbachol-induced contraction of isolated bladder strips (antimuscarinic activity); settings: for Slope (Schild regression): Table 9, mean ± SE
T2 construct: isolated strips of guinea pig bladder smooth muscle; from tissue; host or cells: urinary bladder strips of male Hartley guinea pigs

[5] = biological target: T3, human recombinant M4 muscarinic receptor (Homo sapiens, UniProt P08173); experiment: biochemical; type: binding; settings: for inhibition at 10 µM: read-out: percent inhibition of specific radioligand binding M4H 10^-5 M; for inhibition at 0.1 µM: read-out: percent inhibition of specific radioligand binding M4H 10^-7 M; for inhibition at 0.001 µM: read-out: percent inhibition of specific radioligand binding M4H 10^-9 M
T3 construct: made in house; host or cells: SF9 insect cells infected with baculovirus (membranes)
T3 sequence (P08173 1-479): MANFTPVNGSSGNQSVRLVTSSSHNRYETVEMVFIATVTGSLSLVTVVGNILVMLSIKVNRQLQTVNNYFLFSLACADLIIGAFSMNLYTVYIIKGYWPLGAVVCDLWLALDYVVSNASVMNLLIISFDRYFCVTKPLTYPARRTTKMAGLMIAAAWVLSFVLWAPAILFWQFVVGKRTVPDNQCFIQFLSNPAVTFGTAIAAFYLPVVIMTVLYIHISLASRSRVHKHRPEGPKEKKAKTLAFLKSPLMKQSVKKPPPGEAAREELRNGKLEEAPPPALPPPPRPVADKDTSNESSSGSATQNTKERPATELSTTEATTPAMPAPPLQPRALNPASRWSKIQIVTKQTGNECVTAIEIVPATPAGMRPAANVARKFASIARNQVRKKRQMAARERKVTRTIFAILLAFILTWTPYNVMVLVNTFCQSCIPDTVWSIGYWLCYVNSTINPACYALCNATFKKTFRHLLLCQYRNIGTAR

[6] = test system: Ca channel (T + L, diltiazem site); type: binding, rat; settings: for percent inhibition of specific radioligand binding, Calcium (diltiazem): Table 8, 10^-5 M
[7] = test system: calcium channel (diltiazem and verapamil sites); experiment: Binding at calcium channels, overall result; parameters: species or system rat; settings: 10^-5 M
[8] = test system: human muscarinic receptor subtypes M1-M4; experiment: Binding to human muscarinic receptor subtypes M1-M4, overall result
[9] = Table 10, 137.7 mM K+, 60 min exposure, n = 3, * significantly different from untreated (< 0.01)

T2 sequence (H0W1Z3 1-590): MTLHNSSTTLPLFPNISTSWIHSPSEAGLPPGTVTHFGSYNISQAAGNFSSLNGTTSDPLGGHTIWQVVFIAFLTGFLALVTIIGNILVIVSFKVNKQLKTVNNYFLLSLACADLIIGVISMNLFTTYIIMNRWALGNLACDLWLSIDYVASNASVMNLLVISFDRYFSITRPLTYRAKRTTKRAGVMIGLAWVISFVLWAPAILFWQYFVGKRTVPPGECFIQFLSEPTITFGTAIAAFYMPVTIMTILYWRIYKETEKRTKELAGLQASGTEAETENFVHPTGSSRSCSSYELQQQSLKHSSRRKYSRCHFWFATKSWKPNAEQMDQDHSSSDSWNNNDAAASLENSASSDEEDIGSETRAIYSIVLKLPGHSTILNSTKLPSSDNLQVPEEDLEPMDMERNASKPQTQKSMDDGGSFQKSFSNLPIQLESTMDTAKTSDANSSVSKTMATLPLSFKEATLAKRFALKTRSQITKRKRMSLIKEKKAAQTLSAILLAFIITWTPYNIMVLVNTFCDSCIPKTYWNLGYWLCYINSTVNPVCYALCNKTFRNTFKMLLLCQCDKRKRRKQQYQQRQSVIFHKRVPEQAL

| Structure (SMILES) | IC50 [3] [µM] | inhibition at 0.1 µM [3] [%] | Mean % pretreatment ± SE (magnitude of contraction induced by 137.7 mM K+ after exposure to compound / before) [2, 9] [%] | Kb [4] [µM] | Slope (Schild regression) [4] | percent inhibition of specific radioligand binding, Calcium (verapamil) [1] [%] | inhibition at 10 µM [5] [%] | inhibition at 0.1 µM [5] [%] | percent inhibition of specific radioligand binding, Calcium (diltiazem) [6] [%] | also measured |
| --- | --- | --- | --- | --- | --- | --- | --- | --- | --- | --- |
| COc1ccc(CCN(C)CCCC(C#N)(c2cc(OC)c(OC)c(OC)c2)C(C)C)cc1OC (racemic) [D600, reference compound] |  |  |  |  |  |  |  |  |  | IC50 ([1]; Table 5, reference compound, 8 concentrations, read-out: Ref. Compound IC50, Calcium (verapamil)): 0.0364 µM |
| CCN(CC)CC#CCOC(=O)[C@@](O)(c1ccccc1)C1CCCCC1 [S-OXY, 4-(diethylamino)-2-butynyl α-cyclohexyl-α-hydroxybenzeneacetate] |  |  |  |  |  |  |  |  |  | Mean % pretreatment ± SE (magnitude of contraction induced by 137.7 mM K+ after exposure to compound / before) ([2]; guinea pig, bladder strips, 60 min): 26 ± 9% |
| CCNCC#CCOC(=O)[C@](O)(c1ccccc1)C1CCCCC1.Cl [R-DEO, 4-(Ethylamino)-2-butynyl (R)-α-cyclohexyl-α-hydroxybenzeneacetate hydrochloride salt] | 0.0147 | 97 | 36 ± 5 | 0.000912 | 1.16 ± 0.11 | 96 | 99 | 100 | 86 | inhibition at 10 µM [3]: 102%; inhibition at 0.001 µM ([3]; read-out: percent inhibition of specific radioligand binding M2H 10^-9 M): 21%; inhibition at 0.001 µM [5]: 58% |
| CCN(CC)CC#CCOC(=O)C(O)(c1ccccc1)C1CCCCC1 (racemic) [RS-OXY, 4-(diethylamino)-2-butynyl α-cyclohexyl-α-hydroxybenzeneacetate, reference compound] |  |  | 20 ± 1 |  |  |  |  |  |  |  |
| CCNCC#CCOC(=O)C(O)(c1ccccc1)C1CCCCC1.Cl (racemic) [RS-DEO, 4-(Ethylamino)-2-butynyl α-cyclohexyl-α-hydroxybenzeneacetate hydrochloride salt] | 0.007 | 94 | 47 ± 8 | 0.00282 | 1.35 ± 0.25 | 89 | 95 | 99 | 88 | inhibition at 10 µM [3]: 99%; inhibition at 0.001 µM [5]: 34% |
| CCN(CC)CC#CCOC(=O)[C@](O)(c1ccccc1)C1CCCCC1 [R-OXY, reference compound] |  |  | 32 ± 8 |  |  |  |  |  |  |  |
| CCNCC#CCOC(=O)[C@@](O)(c1ccccc1)C1CCCCC1.Cl [S-DEO, 4-(Ethylamino)-2-butynyl (S)-α-cyclohexyl-α-hydroxybenzeneacetate hydrochloride salt] | 0.177 | 36 |  | 0.049 | 0.87 ± 0.11 | 76 | 99 | 43 | 72 | calcium entry blocking activity (in words) [7]: calcium entry blocking activity similar to that of R- and racemic DEO; antagonism of bladder muscarinic receptors (in words) ([4]; carbachol-induced contraction): less potent antagonists of bladder muscarinic receptors than are R- and racemic OXY and R- and racemic DEO; affinity for muscarinic receptor subtypes (in words) [8]: less affinity for muscarinic receptor subtypes than either R- or racemic DEO |
| COc1ccc([C@@H]2Sc3ccccc3N(CCN(C)C)C(=O)[C@@H]2OC(C)=O)cc1 [diltiazem, reference compound] |  |  |  |  |  |  |  |  |  | IC50 ([6]; Table 5, reference compound, 8 concentrations, read-out: Ref. Compound IC50, Calcium (diltiazem)): 0.0558 µM |
